Experiments:
Assay type in all cases: in vivo
[1] = system: soybean having the Als1 mutation; experiment: Greenhouse postemergence test of ALS-inhibiting herbicides, soybean with Als1 mutation; conditions: for Avg response (% phytotoxicity), Trait Als1: Table 2; for EC10, Als1: rate of herbicide estimated to cause 10% phytotoxic response, loglogistic fit
Procedure: (§1) Soybean lines having wild type als1 & 2 genes, the Als1 mutation, the Als2 mutation, or both the Als1 and Als2 mutations were evaluated for their response to various herbicides. Two seeds from each line were planted into 4-inch pots containing Redi-Earth potting mix (Sun Gro Horticulture Canada Ltd. 52130 RR65, Seba Beach, Alberta TOE 2B0), with two replications planted for each treatment. Pots were placed in flats at 15 pots/flat, and the resulting plants were grown in a greenhouse environment supplemented with lighting (16 hr photoperiod) for the duration of the test. Selected herbicides representing the mode of action that inhibits the acetolactate synthase enzyme, also known as the acetohydroxyacid synthase enzyme, were applied postemergence to soybean when soybean plants were at the V2 growth stage, which is the stage at which the first two trifoliolate leaves were expanded.
(§2) Eleven active ingredients representing the five chemical families with herbicidal activity on the acetolactate synthase enzyme were tested. These herbicides can cause a phytotoxic response in wild type soybean plants. The five chemical families tested were sulfonylaminocarbonyltriazolinone (also known as triazolinone), imidazolinone, sulfonylurea, pyrimidinylthiobenzoate, and triazolopyrimidine. Application rates ranged from 0.5 times to eight times the currently labeled application rate for each active ingredient with spray application volume at 30 gallons/acre. The application rates tested were 0.5×, 1×, 2×, 4× and 8× the label rate for each herbicide. Herbicidal active ingredients were applied as formulated materials dispersed in water containing 0.25% nonionic surfactant (Trend® 90).
(§3) The test was evaluated by visually scoring plant phenotype 14 days after the herbicides were applied. Controls consisted of soybean plants of the same variety that received no herbicide treatments for each of all the varieties tested. Soybean response was recorded on a zero to 100 visual scale in which zero is no phytotoxic response and 100 is plant death fourteen days after the herbicides were applied. Soybean response (percent phytotoxicity) to postemergence applications of herbicides inhibiting the acetolactate synthase enzyme test results are shown in Table 1.
(§4) Results in Table 1 were evaluated using the isobole method for analyzing interactions. […] Here the biologically active agents that are being assessed for interaction (synergy) are gene mutations in soybean. The effectiveness of the genes in providing improved tolerance to ALS-inhibiting herbicides was assessed by applying increasing doses of herbicides to each soybean line with its mutation(s).
(§5) An isobole reduces a dose response surface in three dimensional space to a two dimensional plot by fixing a defined response level (e.g., 50% response). The isobole plot is a graph in the Cartesian plane with a straight line connecting the isoeffective rates of the individual components of the combination. This straight line represents expected responses for zero interactive combinations. The isoeffective rate used to create the isobole is often the EC50, the rate estimated to elicit 50% response, but other ECx values can be used. Since the isobole method is based on the potency of the components of the combination, an experimental design testing a range of rates expected to elicit the full range of responses (e.g., 0 to maximum response) is best. (Ferry et al. (2005) 2005 Conference on Applied Statistics in Agriculture Proceedings pp 33-50, Manhattan, Kans., Kansas State Univ.; Green and Streibig (1993) Herbicide Mixtures, pp 117-134 in Herbicide Bioassays, Streibig and Hudsk Eds, CRC, Boca Raton, Fla.).
(§6) Loglogistic dose response curves were fit to percent phytotoxicity response data using log 10 of dose (McCullagh and Nelder (1989) Generalized Linear Models, Chapman & Hall, London). Curves were fit using the logit link with normal errors. […]

wild type soybean = experiment: Greenhouse postemergence test of ALS-inhibiting herbicides, wild type soybean
Procedure: as §1, §2, §3

[2] = system: soybean having the Als2 mutation; experiment: Greenhouse postemergence test of ALS-inhibiting herbicides, soybean with Als2 mutation; conditions: for Avg response (% phytotoxicity), Trait Als2: Table 2; for EC10, Als2: rate of herbicide estimated to cause 10% phytotoxic response, loglogistic fit
Procedure: as §1, §2, §3, §4, §5, §6

[3] = system: soybean having both the Als1 and Als2 mutations; experiment: Greenhouse postemergence test of ALS-inhibiting herbicides and isobole analysis, soybean with Als1 and Als2 mutations; conditions: for Avg response (% phytotoxicity), Trait Als1 + Als2: Table 2; for EC10, Als1 + Als2: rate of herbicide estimated to cause 10% phytotoxic response, loglogistic fit
Procedure: as §1, §2, §3, §4, §5, §6

[4] = 4.38 g ai/ha postemergence at V2, scored 14 days after application
[5] = 8.75 g ai/ha postemergence at V2, scored 14 days after application
[6] = 17.5 g ai/ha postemergence at V2, scored 14 days after application
[7] = 35 g ai/ha postemergence at V2, scored 14 days after application
[8] = 70 g ai/ha postemergence at V2, scored 14 days after application
[9] = 140 g ai/ha postemergence at V2, scored 14 days after application
[10] = 280 g ai/ha postemergence at V2, scored 14 days after application
[11] = 560 g ai/ha postemergence at V2, scored 14 days after application

With `COc1nc(C)nc(N(C)C(=O)NS(=O)(=O)c2ccccc2C(=O)O)n1` [Tribenuron] the “Soybean response (percent phytotoxicity), Als1” value [1, 4] was 0%, the “Avg response (% phytotoxicity), Trait Als1” value ([1]; 4.38 g ai/ha) was 0% and the “Soybean response (percent phytotoxicity), Als1” value [1, 5] was 0%. The “Avg response (% phytotoxicity), Trait Als1” value ([1]; 8.75 g ai/ha) was 0%, the “Soybean response (percent phytotoxicity), Als1” value [1, 6] was 0% and the “Avg response (% phytotoxicity), Trait Als1” value ([1]; 17.5 g ai/ha) was 0%. The “Soybean response (percent phytotoxicity), Als1” value [1, 7] was 0%, the “Avg response (% phytotoxicity), Trait Als1” value ([1]; 35 g ai/ha) was 0% and the “Soybean response (percent phytotoxicity), Als1” value [1, 8] was 10%. The “Avg response (% phytotoxicity), Trait Als1” value ([1]; 70 g ai/ha) was 10%, the “EC10, Als1” value [1] was 70 g ai/ha and the “Soybean response (percent phytotoxicity), Wild type” value (wild type soybean; [4]) was 10%. For the same compound, the “Soybean response (percent phytotoxicity), Wild type” value (wild type soybean; [5]) was 70%, the “Soybean response (percent phytotoxicity), Wild type” value (wild type soybean; [6]) was 93% and the “Soybean response (percent phytotoxicity), Wild type” value (wild type soybean; [7]) was 98%. The “Soybean response (percent phytotoxicity), Wild type” value (wild type soybean; [8]) was 98%, the “Soybean response (percent phytotoxicity), Als2” value [2, 4] was 0% and the “Avg response (% phytotoxicity), Trait Als2” value ([2]; 4.38 g ai/ha) was 0%. The “Soybean response (percent phytotoxicity), Als2” value [2, 5] was 15%, the “Avg response (% phytotoxicity), Trait Als2” value ([2]; 8.75 g ai/ha) was 15% and the “Soybean response (percent phytotoxicity), Als2” value [2, 6] was 40%. The “Avg response (% phytotoxicity), Trait Als2” value ([2]; 17.5 g ai/ha) was 40%, the “Soybean response (percent phytotoxicity), Als2” value [2, 7] was 60% and the “Avg response (% phytotoxicity), Trait Als2” value ([2]; 35 g ai/ha) was 60%. For the same compound, the “Soybean response (percent phytotoxicity), Als2” value [2, 8] was 65%, the “Avg response (% phytotoxicity), Trait Als2” value ([2]; 70 g ai/ha) was 65% and the “EC10, Als2” value [2] was 4.96 g ai/ha. For the same compound, the “Soybean response (percent phytotoxicity), Als1 + Als2” value [3, 4] was 0%, the “Avg response (% phytotoxicity), Trait Als1 + Als2” value ([3]; 4.38 g ai/ha) was 0% and the “Soybean response (percent phytotoxicity), Als1 + Als2” value [3, 5] was 0%. For the same compound, the “Avg response (% phytotoxicity), Trait Als1 + Als2” value ([3]; 8.75 g ai/ha) was 0%, the “Soybean response (percent phytotoxicity), Als1 + Als2” value [3, 6] was 0% and the “Avg response (% phytotoxicity), Trait Als1 + Als2” value ([3]; 17.5 g ai/ha) was 0%. For the same compound, the “Soybean response (percent phytotoxicity), Als1 + Als2” value [3, 7] was 0%, the “Avg response (% phytotoxicity), Trait Als1 + Als2” value ([3]; 35 g ai/ha) was 0% and the “Soybean response (percent phytotoxicity), Als1 + Als2” value [3, 8] was 0%. For the same compound, the “Avg response (% phytotoxicity), Trait Als1 + Als2” value ([3]; 70 g ai/ha) was 0% and the “EC10, Als1 + Als2” value [3] was >70 g ai/ha.
`CCc1cnc(C2=NC(C)(C(C)C)C(=O)N2)c(C(=O)O)c1` (stereo not shown) [Imazethapyr] was tested, and the “Soybean response (percent phytotoxicity), Als1” value [1, 7] was 0%, the “Avg response (% phytotoxicity), Trait Als1” value ([1]; 35 g ai/ha) was 0% and the “Soybean response (percent phytotoxicity), Als1” value [1, 8] was 0%. For the same compound, the “Avg response (% phytotoxicity), Trait Als1” value ([1]; 70 g ai/ha) was 0%, the “Soybean response (percent phytotoxicity), Als1” value [1, 9] was 0% and the “Avg response (% phytotoxicity), Trait Als1” value ([1]; 140 g ai/ha) was 0%. For the same compound, the “Soybean response (percent phytotoxicity), Als1” value [1, 10] was 10%, the “Avg response (% phytotoxicity), Trait Als1” value ([1]; 280 g ai/ha) was 10% and the “Soybean response (percent phytotoxicity), Als1” value [1, 11] was 20%. For the same compound, the “Avg response (% phytotoxicity), Trait Als1” value ([1]; 560 g ai/ha) was 20%, the “EC10, Als1” value [1] was 333.22 g ai/ha and the “Soybean response (percent phytotoxicity), Wild type” value (wild type soybean; [7]) was 0%. For the same compound, the “Soybean response (percent phytotoxicity), Wild type” value (wild type soybean; [8]) was 0%, the “Soybean response (percent phytotoxicity), Wild type” value (wild type soybean; [9]) was 0% and the “Soybean response (percent phytotoxicity), Wild type” value (wild type soybean; [10]) was 15%. The “Soybean response (percent phytotoxicity), Wild type” value (wild type soybean; [11]) was 20%, the “Soybean response (percent phytotoxicity), Als2” value [2, 7] was 0% and the “Avg response (% phytotoxicity), Trait Als2” value ([2]; 35 g ai/ha) was 0%. The “Soybean response (percent phytotoxicity), Als2” value [2, 8] was 0%, the “Avg response (% phytotoxicity), Trait Als2” value ([2]; 70 g ai/ha) was 0% and the “Soybean response (percent phytotoxicity), Als2” value [2, 9] was 0%. For the same compound, the “Avg response (% phytotoxicity), Trait Als2” value ([2]; 140 g ai/ha) was 0%, the “Soybean response (percent phytotoxicity), Als2” value [2, 10] was 0% and the “Avg response (% phytotoxicity), Trait Als2” value ([2]; 280 g ai/ha) was 0%. The “Soybean response (percent phytotoxicity), Als2” value [2, 11] was 5%, the “Avg response (% phytotoxicity), Trait Als2” value ([2]; 560 g ai/ha) was 10% and the “EC10, Als2” value [2] was 560.00 g ai/ha. For the same compound, the “Soybean response (percent phytotoxicity), Als1 + Als2” value [3, 7] was 0%, the “Avg response (% phytotoxicity), Trait Als1 + Als2” value ([3]; 35 g ai/ha) was 0% and the “Soybean response (percent phytotoxicity), Als1 + Als2” value [3, 8] was 0%. For the same compound, the “Avg response (% phytotoxicity), Trait Als1 + Als2” value ([3]; 70 g ai/ha) was 0%, the “Soybean response (percent phytotoxicity), Als1 + Als2” value [3, 9] was 0% and the “Avg response (% phytotoxicity), Trait Als1 + Als2” value ([3]; 140 g ai/ha) was 0%. The “Soybean response (percent phytotoxicity), Als1 + Als2” value [3, 10] was 5%, the “Avg response (% phytotoxicity), Trait Als1 + Als2” value ([3]; 280 g ai/ha) was 5% and the “Soybean response (percent phytotoxicity), Als1 + Als2” value [3, 11] was 10%. For the same compound, the “Avg response (% phytotoxicity), Trait Als1 + Als2” value ([3]; 560 g ai/ha) was 10% and the “EC10, Als1 + Als2” value [3] was 549.93 g ai/ha.
